Experimental data from US20240117302A1, “COMPOSITIONS AND METHODS FOR SMALL MOLECULE BASED EXPANSION OF PLURIPOTENT STEM CELLS” (Trailhead Biosystems Inc., priority 2022, published 2024).

Assays:
Assay type in all cases: cell-based
pluripotent colony = assay: Protein additives assayed in the TB5i formulation, with immuno-histochemical validation; conditions: additive in the TB5i formulation, FIG. 8A
From the text: The protein additives FGF2, TGF-β1 and insulin were next assayed as additives in the TB5i formulation (FIG. 8A).

pluripotent cells = assay: Adherent culture validation of TB5i media and comparison with TB7i; conditions: direct comparison between TB5i and TB7i, FIG. 7A-7B
Procedure: In an exemplary embodiment, a PSC culture, such as the CR01 iPSC line, is grown and maintained on vitronectin coated 6-well TC plates using a culture media of the present application, such as TB5i media. PSC cultures are generally passaged every 3-4 days and treated with agents for disrupting cell-to-cell adhesion, such as EDTA, or digestion enzymes, such as collagenase, accutase, trypsin, or […]. This can be accomplished by removing the media and washing each well of the TC plate with 2 ml of PBS. A 3-minute incubation in the presence of 5 mM EDTA can then be performed at 37 degrees C. Wells are then aspirated, and the cells are washed off from the plates and seeded in fresh media. Each well passaged is generally seeded onto 6 wells of a newly vitronectin-coated TC plate resulting in a 1 to 6 expansion of the iPSC line.

pluripotent culture [1] = assay: HD-DoE experiment for E8 critical process parameter (CPP) media determination; conditions: 1:1 F12/IMDM hybrid media, FIG. 3
From the text: To monitor the differentiation state of a pluripotent culture and track the primed state, naïve state and any early lineage commitment biases that may arise during the culture process, a network consisting of 54 genes was chosen (FIG. 1). Other genes monitored throughout this series of experiments include TERT and KI67. Maximal TERT expression is needed to sustain the pluripotent state in both naïve and primed cells while KI67, a proliferation marker, is expected to increase in the naïve state. Housekeeping genes measured within this QS chip design are used to normalize the individual experimental runs. This network of genes was then monitored using an HD-DoE methodology (Bukys et al. (2020) Iscience 23:101346) as further described in Example 2 to enable in silico modelling of the pluripotent state.
An initial HD-DoE modelling experiment was designed to determine if any of the components within the Essential 8 (E8) media were critical for pluripotent maintenance. The results of this experiment are depicted in FIG. 2. E8 media components include HEPES, bicarbonate, selenium, ascorbic acid, transferrin, insulin, FGF2 and TGF-β. HEPES, bicarbonate and selenium were not considered in this HD-DoE design, because they are additives that are not specific for the maintenance of the pluripotent state but are involved in enabling the overall growth of any cells in culture. In addition, these components are present in most generic media formulations, whereas the initial HD-DoE experiment herein utilized a 1:1 F12/IMDM hybrid media already containing HEPES, bicarbonate and selenium. In addition to the E8 components, human leukemia inhibitory factor (hLIF), AICAR (AMPK pathway agonist), CHIR 99021 (Wnt agonist/[…] antagonist), Go6983 (PKC pathway antagonist), PD0325901 (MEK pathway antagonist), and Y27632 (ROCK inhibitor) were evaluated within this design (FIG. 2). These components were selected based on previous experiments indicating the potential contribution of these components to maintenance of the pluripotent state.
Whereas the overall pluripotent state was driven by Go6983, the naïve state was favored by Y27632.

pluripotent culture [2] = assay: HD-DoE experiment for pluripotent maintenance (optimization of naïve, primed and pluripotent genes); conditions: FIG. 6A
From the text: A data-driven, High-Dimensional Design of Experiments (HD-DoE)-based perturbation of a pluripotent culture was used to assay several cellular signaling pathways known to function within the pluripotent state. The HD-DOE method was applied with the intent to find conditions for directly inducing the naïve state from the pluripotent stem cell state. This example utilizes a method previously described by Bukys et al. (2020) Iscience 23:101346, which employs computerized design geometries to simultaneously test multiple process inputs and provide for mathematical modeling of a deep effector/response space. The method allows for finding combinatorial signaling inputs that control a complex differentiation process and allows testing of multiple plausible critical process parameters impacting output responses, such as gene expression. […]
To develop a cell culture recipe for growing and maintaining PSCs in cell culture and for differentiation of stem cells to naïve state progenitors, the impact of agonists and antagonists of multiple signaling pathways (herein called effectors) on the expression of pre-selected genes was tested and modeled. The impact of each effector on gene expression level is defined by a parameter called factor contribution that is calculated for each effector during the modeling. […]

Molecule: FGF2
- growth rate of the culture (pluripotent colony): increased the growth rate

Molecule: C[C@@H](N)[C@H]1CC[C@H](C(=O)Nc2ccncc2)CC1 [Y27632]
- benefit to the overall growth of pluripotent cells (pluripotent cells): neither forskolin, nor Y27632 were beneficial
- contribution to maintaining the pluripotent state (pluripotent culture [1]): potentially aid in pluripotent maintenance
- criticality to the process (sequential optimization of all naïve, primed and pluripotent genes) (pluripotent culture [2]): neither the cAMP activator forskolin, nor the ROCK pathway inhibitor were critical

Molecule: COc1ccc2c(c1)c(C1=C(c3c[nH]c4ccccc34)C(=O)NC1=O)cn2CCCN(C)C [Go6983]
- contribution to maintaining the pluripotent state (pluripotent culture [1]): potentially aid in pluripotent maintenance

Molecule: TGF-β1
- morphology of the pluripotent colony edges (pluripotent colony): sustained normal morphology

Molecule: transferrin
- contribution to maintaining the pluripotent state (pluripotent culture [1]): beneficial in maintaining the pluripotent state

Molecule: insulin
- effect on the culture (pluripotent colony): little, if any beneficial effect

Molecule: O=C1O[C@H]([C@@H](O)CO)C(O)=C1O [ascorbic acid]
- contribution to maintaining the pluripotent state (pluripotent culture [1]): beneficial in maintaining the pluripotent state
